Values of other authors as cited in PMC6698139 (Bioorganic & medicinal chemistry, 2019).

Tested on: S1PR2
Settings: [33P]S1P competitive binding assay

In the case of Cc1cc(C(=O)Cn2cc(C#N)ccc2=O)c(C)n1Cc1ccccc1 [CYM-5520], the “competition with S1P” value is given as “not competitive”.
